Measurements from PMC4974056, “The proposed channel-enzyme transient receptor potential melastatin 2 does not possess ADP ribose hydrolase activity” (eLife, 2016).
Where “and” joins values, the source holds several entries; their conditions need not be identical. Identical values can stand only once.

Assays:
[1] = target: T1, Chi4S (Homo sapiens, UniProt O94759); test: Ligand binding assay based on quenching of ε-ADPR fluorescence; conditions: 100 μM Chi4S, 20 mM Tris pH 8.5/100 mM NaCl, 16 mM MgCl2; assuming negligible fluorescence of bound analog; read-out: Kd (upper estimate)
T1 construct: its C-terminal cytosolic NUDT9-homology (NUDT9H) domain; made in house; host or cells: E. coli BL21 (DE3), pJ411 plasmid
T1 sequence (O94759 with tags, fused parts or gaps limits assumed): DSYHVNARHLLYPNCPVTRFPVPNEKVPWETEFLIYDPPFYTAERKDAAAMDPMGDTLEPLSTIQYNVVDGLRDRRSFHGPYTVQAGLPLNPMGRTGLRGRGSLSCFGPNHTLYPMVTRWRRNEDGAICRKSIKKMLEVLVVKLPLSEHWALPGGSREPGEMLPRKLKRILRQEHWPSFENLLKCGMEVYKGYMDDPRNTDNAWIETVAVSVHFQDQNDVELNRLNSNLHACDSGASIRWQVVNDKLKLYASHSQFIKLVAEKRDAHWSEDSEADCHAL
Method: The ligand binding ability of purified Chi4S protein was assessed using fluorescence quenching of the ADPR analogue 1, N^6-ethenoadenosine-5’-O-diphosphoribose (ε-ADPR - BIOLOG Life Science Institute, Bremen, Germany). A 350-μl volume of 100 μM Chi4S protein in 20 mM Tris (pH 8.5)/100 mM NaCl buffer, supplemented with 16 mM MgCl2, was titrated by increasing concentrations of ε-ADPR. Fluorescence emission scans (350–700 nm) were recorded at a fixed excitation wavelength of 310 nm (Hitachi F-7000, Hitachi High Technologies, Maidenhead, UK). Fluorescence emission for ε-ADPR peaks at ~410 nm. Protein-free buffer or 100 μM bovine serum albumin (BSA; instead of Chi4S) were used as controls. Data are shown as mean ± S.D. of two independent experiments.
Dose dependence of fluorescence (Em = 420 nm) of free ε-ADPR (in buffer) was fitted by an empirical non-linear function to produce a smooth calibration curve, used to obtain upper estimates of free [ε-ADPR] in the presence of 100 μM Chi4S protein and various total [ε-ADPR], assuming negligible fluorescence for the bound, relative to the free, form of the analog. The plot of free vs. total [ε-ADPR] was fitted by the simple binding equation [ε-ADPR]free=0.5([ε-ADPR]total−[P]total−Kd+([ε-ADPR]total−[P]total−Kd)^2+4Kd[ε-ADPR]total),
where [P]total is the total concentration of Chi4S protein (100 μM), and Kd is a free parameter. […]

[2] = target: T5L-TRPM2 (Homo sapiens, UniProt O94759, G984L/INS985E/Y985D); test: Excised inside-out patch-clamp recordings, ADPR-dependent channel activation; format: cell-based
Sequence of T5L-TRPM2 (O94759 whole entry, stated change not applied): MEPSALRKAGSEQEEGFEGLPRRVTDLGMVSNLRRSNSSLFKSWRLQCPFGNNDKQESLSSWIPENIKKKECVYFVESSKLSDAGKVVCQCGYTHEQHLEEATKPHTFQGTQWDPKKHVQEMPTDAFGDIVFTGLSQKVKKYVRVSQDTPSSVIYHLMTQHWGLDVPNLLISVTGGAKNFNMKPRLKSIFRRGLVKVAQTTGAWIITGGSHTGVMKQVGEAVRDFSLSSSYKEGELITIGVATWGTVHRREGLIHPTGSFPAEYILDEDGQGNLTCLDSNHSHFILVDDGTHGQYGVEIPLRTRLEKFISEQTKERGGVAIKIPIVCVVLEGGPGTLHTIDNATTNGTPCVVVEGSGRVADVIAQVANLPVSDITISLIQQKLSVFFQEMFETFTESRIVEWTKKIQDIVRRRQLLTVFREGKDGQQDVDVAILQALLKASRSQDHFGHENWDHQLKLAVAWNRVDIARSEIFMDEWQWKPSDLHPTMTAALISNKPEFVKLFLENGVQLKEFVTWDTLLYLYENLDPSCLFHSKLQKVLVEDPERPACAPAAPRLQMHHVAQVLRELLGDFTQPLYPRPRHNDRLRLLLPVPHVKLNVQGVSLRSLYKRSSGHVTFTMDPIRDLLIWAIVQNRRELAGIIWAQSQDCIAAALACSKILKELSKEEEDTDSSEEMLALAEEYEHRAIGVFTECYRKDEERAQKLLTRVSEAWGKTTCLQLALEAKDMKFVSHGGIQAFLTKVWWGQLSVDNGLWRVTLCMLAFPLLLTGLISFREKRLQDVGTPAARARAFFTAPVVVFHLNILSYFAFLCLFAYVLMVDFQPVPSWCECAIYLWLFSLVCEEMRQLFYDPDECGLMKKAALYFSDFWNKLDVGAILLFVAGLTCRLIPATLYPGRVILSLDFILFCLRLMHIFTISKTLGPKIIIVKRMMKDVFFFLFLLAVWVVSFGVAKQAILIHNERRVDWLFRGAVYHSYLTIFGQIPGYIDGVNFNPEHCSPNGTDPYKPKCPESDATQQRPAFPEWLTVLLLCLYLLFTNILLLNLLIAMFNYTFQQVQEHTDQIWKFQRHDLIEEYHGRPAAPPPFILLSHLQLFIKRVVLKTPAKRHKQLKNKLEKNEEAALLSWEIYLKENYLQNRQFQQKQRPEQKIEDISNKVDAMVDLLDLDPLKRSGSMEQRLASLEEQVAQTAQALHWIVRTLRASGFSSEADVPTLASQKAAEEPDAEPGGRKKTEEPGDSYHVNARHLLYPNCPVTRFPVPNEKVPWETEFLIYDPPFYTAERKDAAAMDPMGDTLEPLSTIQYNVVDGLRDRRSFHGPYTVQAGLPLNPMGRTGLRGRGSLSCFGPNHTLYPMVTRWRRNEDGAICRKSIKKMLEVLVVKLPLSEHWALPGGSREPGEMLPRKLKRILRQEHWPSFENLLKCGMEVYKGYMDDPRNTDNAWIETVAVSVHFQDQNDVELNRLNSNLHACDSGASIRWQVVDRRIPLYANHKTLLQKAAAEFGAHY
Method: Oocytes isolated from anaesthetized Xenopus laevis were digested with collagenase, injected with 10–70 ng cRNA, and stored at 18°C. Recordings were done 2–3 days after injection.
The tip of the patch pipette was filled to ~1 cm height with 140 mM Na-gluconate, 2 mM Mg-gluconate2, 10 mM HEPES (pH 7.4 with NaOH); free [Ca^2+] ~4 μM. The pipette electrode was placed into a 140-mM NaCl-based solution carefully layered on top. Bath solution contained 140 mM Na-gluconate, 2 mM Mg-gluconate2, 10 mM HEPES (pH 7.1 with NaOH), and either 1 mM EGTA (to obtain 'zero' (~8 nM) Ca^2+) or 1 mM Ca-gluconate2 (to obtain 125 μM free Ca^2+) ([Csanády and Törocsik, 2009]). Na-ADPR was used at final concentrations of 0.32, 1, 3.2, 10, 32, 100, or 1000 μM, and the Na^+ salt of ε-ADPR at 100 μM. Macroscopic TRPM2 currents were recorded at 25°C at a membrane potential of −20 mV. Currents were amplified, filtered at 2 kHz (Axopatch 200B), digitized at 10 kHz (Digidata 1322A), and stored to disk (Pclamp9, Molecular Devices, Sunnyvale, CA, USA).
Dose dependence of ADPR-induced current activation, expressed as the ratio of mean macroscopic currents observed in the presence of various test [ADPR] (I) and 32 (or 100) μM ADPR (Imax) in the same patch, was fitted to the Hill equation (I/Imax = [ADPR]^n/(K^n+[ADPR]^n). Dose dependence of ADPR-activation in the presence of 100 μM ε-ADPR was expressed as the ratio of the currents observed in the presence of various test [ADPR] + 100 μM ε-ADPR (I) and 100 μM ADPR alone (Imax) in the same patch, and was fitted to the Hill equation substituting K' = K(1+[ε-ADPR]/KI) instead of K (K and n fixed to their control values). Macroscopic current decay time courses following removal of ADPR or Ca^2+ were fitted by single exponentials using the method of least squares.

## O=P(O)(OC[C@H]1OC(O)[C@H](O)[C@@H]1O)OP(=O)(O)OC[C@H]1O[C@@H](n2cnc3c2ncn2ccnc32)[C@H](O)[C@@H]1O (stereo partly drawn) [ε-ADPR, 1, N^6-ethenoadenosine-5’-O-diphosphoribose]
[1]
  Kd: 111 µM and ≤ 111 µM
[2]; inside-out patch, 1 or 100 μM ADPR
  effect on ADPR-evoked TRPM2 currents: suppressed ADPR-evoked TRPM2 currents in a dose-dependent manner
[2]; right-shift of ADPR dose response in the presence of 100 μM ε-ADPR, competitive fit, read-out: KI (Kε-ADPR) for binding to native NUDT9H
  Ki: 112 ± 24 µM
